Drawing on ChEMBL document CHEMBL5532756, “Phenylthiazoles with potent & optimum selectivity toward Clostridium difficile” (RSC Med Chem, 2024), this text covers MIC, viability and Activity for 13 compounds.

A word on the MIC: it is the lowest concentration found to suppress growth.

SMILES strings stand for the structures. Values after ≈ are worked out from the molar mass of the structure shown. Where only a bound is given, the exact number is not on record here.

For data set [1], the system named is Staphylococcus aureus. In words: Antimicrobial activity against methicillin-resistant Staphylococcus aureus USA300. Format: functional.
The subject of data set [2] is Candida albicans. In words: Antimicrobial activity against Candida albicans ATCC 64124. Type of data set: functional.
For data set [3], the system named is Clostridioides difficile. In words: Antimicrobial activity against Clostridioides difficile ATCC BAA-1870. Format: functional.
The subject of data set [4] is Escherichia coli. Briefly: Antimicrobial activity against Escherichia coli BW25113. Format: functional.
Data set [5] concerns Neisseria gonorrhoeae. Briefly: Antimicrobial activity against Neisseria gonorrhoeae 194. Format: functional.
In data set [6] the test system is Escherichia coli. Briefly: Antimicrobial activity against Escherichia coli JW55031 harboring TolC mutant. Format: functional.
The test system of data set [7] is Lactobacillus crispatus. In words: Antibacterial activity against Lactobacillus crispatus HM-420. Type of data set: functional.
Data set [8] concerns Clostridioides difficile. In words: Antibacterial activity against Clostridioides difficile I 11. Format: functional.
Data set [9] has as its system Bifidobacterium breve. In words: Antibacterial activity against Bifidobacterium breve HM-1120. Type of data set: functional.
Data set [10] has as its system Lactobacillus gasseri. Briefly: Antibacterial activity against Lactobacillus gasseri HM-400. Format: functional.
The subject of data set [11] is Clostridioides difficile. In words: Antibacterial activity against Clostridioides difficile ATCC 43598. Type of data set: functional.
In data set [12] the test system is Clostridioides difficile. In words: Antibacterial activity against Clostridioides difficile I 13. Format: functional.
A short description of data set [13]: Cytotoxicity against African green monkey Vero cells assessed as cell viability at 0.5 to 64 ug/ml relative to control. Format: toxicity, cell-based. Conditions: chlorocebus sabaeus, at 0.5 to 64 µg/mL, dose 0.5-64 µg/ml, read-out: Activity.
Data set [14] deals with HRT-18 cell line. Briefly: Cytotoxicity against human HRT-18 cell line assessed as cell viability upto 64 ug/ml. Format: toxicity, cell-based. Conditions: dose < 64 µg/ml.
Data set [15] concerns Bacteroides fragilis. In words: Antibacterial activity against Bacteroides fragilis HM-714. Format: functional.
Data set [16] concerns Phocaeicola dorei. Briefly: Antibacterial activity against Bacteroides dorei HM-719. Type of data set: functional.
The test system of data set [17] is Bifidobacterium breve. Briefly: Antibacterial activity against Bifidobacterium breve HM-411. Format: functional.
Data set [18] has as its system Lacticaseibacillus casei. In words: Antibacterial activity against Lactobacillus casei ATCC 334. Format: functional.
Data set [19] concerns Clostridioides difficile. Briefly: Antibacterial activity against Clostridioides difficile P7. Type of data set: functional.
Data set [20] is described as follows: Antibacterial activity against Bifidobacterium longum subsp. Longum HM-845. Type of data set: functional.
Data set [21] has as its system Bacteroides fragilis. In words: Antibacterial activity against Bacteroides fragilis HM-709. Type of data set: functional.

`Cc1nc(-c2ccc3ccccc3c2)sc1-c1ccnc(NCC(=N)N)n1`: the MIC is more than 64 µg/mL in data set [1]; more than 64 µg/mL in data set [2]; 32 µg/mL (≈ 85.5 µM) in data set [3]; more than 64 µg/mL in data set [4]; more than 64 µg/mL in [5]; more than 64 µg/mL in data set [6].

On to `Cc1nc(-c2ccc3ccccc3c2)sc1-c1ccnc(N2CCC[C@H]2C(N)=O)n1`, for which the MIC in data set [1] is more than 64 µg/mL; in data set [2], more than 64 µg/mL; in [3], 64 µg/mL (≈ 154 µM); in data set [4], more than 64 µg/mL; in data set [5] it was more than 64 µg/mL; in data set [6], more than 64 µg/mL.

For the compound `Cc1nc(-c2ccc3ccccc3c2)sc1-c1ccnc(-c2ccncc2)n1`, the MIC in data set [1], in [2], in [3], in data set [4], in [5] and in data set [6] was more than 64 µg/mL throughout.

As for `Cc1nc(-c2ccc3ccccc3c2)sc1-c1ccnc(-c2ccccn2)n1`, the MIC in data set [7] is more than 64 µg/mL; in data set [1], more than 64 µg/mL; in [8] it was 0.03 µg/mL (≈ 0.0788 µM); in data set [9], more than 64 µg/mL; in [2], more than 64 µg/mL; in data set [10], more than 64 µg/mL. Further, the MIC in [11] was 0.125 µg/mL (≈ 0.329 µM); in data set [3] it was 0.03 µg/mL (≈ 0.0788 µM); in data set [4], more than 64 µg/mL; in data set [12] it was 0.06 µg/mL (≈ 0.158 µM); in [5], more than 64 µg/mL; in data set [15] it was more than 64 µg/mL. The MIC was more than 64 µg/mL in [16]; more than 64 µg/mL in data set [17]; more than 64 µg/mL in data set [6]; more than 64 µg/mL in data set [18]; 0.125 µg/mL (≈ 0.329 µM) in [19]; more than 64 µg/mL in data set [20]. Also, the MIC in data set [21] is more than 64 µg/mL. For the same compound, in data set [13], the viability was 100%. Moreover, the Activity entry in [14] is “Non-Toxic”.

For `Cc1nc(-c2ccc3ccccc3c2)sc1-c1ccnc(N2CC[C@H](N(C)C)C2)n1`, the MIC was 32 µg/mL (≈ 77 µM) in data set [1]; 32 µg/mL (≈ 77 µM) in data set [2]; 32 µg/mL (≈ 77 µM) in data set [3]; more than 64 µg/mL in data set [4]; more than 64 µg/mL in data set [5]; more than 64 µg/mL in data set [6].

Turning to `Cc1nc(-c2ccc3ccccc3c2)sc1-c1ccnc(N2CCCCC2CN)n1` (centres undefined), the MIC in [1] is more than 64 µg/mL; in data set [2], 16 µg/mL (≈ 38.5 µM); in data set [3], 64 µg/mL (≈ 154 µM); in data set [4], more than 64 µg/mL; in data set [5], more than 64 µg/mL; in [6], more than 64 µg/mL.

`Cc1nc(-c2ccc3ccccc3c2)sc1-c1ccnc(-c2cccnc2)n1`: the MIC in data set [1], in data set [2], in data set [3], in data set [4], in data set [5] and in data set [6] was more than 64 µg/mL throughout.

With `Cc1nc(-c2ccc3ccccc3c2)sc1-c1ccnc(NCCN(C)C)n1`, the MIC in data set [1] is 16 µg/mL (≈ 41.1 µM); in data set [2], 16 µg/mL (≈ 41.1 µM); in [3], 16 µg/mL (≈ 41.1 µM); in data set [4], more than 64 µg/mL; in [5], more than 64 µg/mL; in data set [6], 16 µg/mL (≈ 41.1 µM).

For the compound `Cc1nc(-c2ccc3ccccc3c2)sc1-c1ccnc(NCC(O)CO)n1` (racemic), the MIC is more than 64 µg/mL in [1]; more than 64 µg/mL in data set [2]; 8 µg/mL (≈ 20.4 µM) in data set [3]; more than 64 µg/mL in data set [4]; 64 µg/mL (≈ 163 µM) in data set [5]; more than 64 µg/mL in data set [6].

Take `Cc1nc(-c2ccc3ccccc3c2)sc1-c1ccnc(N[C@@H]2CCCC[C@@H]2N)n1` (relative stereo): the MIC in [1] is 4 µg/mL (≈ 9.63 µM); in data set [2] it was 8 µg/mL (≈ 19.3 µM); in data set [3], 8 µg/mL (≈ 19.3 µM); in [4] it was more than 64 µg/mL; in [5], 32 µg/mL (≈ 77 µM); in data set [6] it was 8 µg/mL (≈ 19.3 µM).

With `Cc1nc(-c2ccc3ccccc3c2)sc1-c1ccnc(N[C@@H]2CCCC[C@H]2N)n1` (relative stereo), the MIC in [1] was 4 µg/mL (≈ 9.63 µM); in [2], 8 µg/mL (≈ 19.3 µM); in [3] it was 16 µg/mL (≈ 38.5 µM); in data set [4], more than 64 µg/mL; in data set [5] it was 64 µg/mL (≈ 154 µM); in data set [6] it was 8 µg/mL (≈ 19.3 µM).

`Cc1ncc([N+](=O)[O-])n1CCO` [METRONIDAZOLE]: the MIC was more than 8 µg/mL in data set [7]; 0.5 µg/mL (≈ 2.92 µM) in data set [8]; more than 8 µg/mL in data set [9]; more than 8 µg/mL in data set [10]; 0.25 µg/mL (≈ 1.46 µM) in data set [11]; 0.25 µg/mL (≈ 1.46 µM) in data set [3]. The MIC in data set [12] is 0.25 µg/mL (≈ 1.46 µM); in [15], 1 µg/mL (≈ 5.84 µM); in data set [16] it was 0.25 µg/mL (≈ 1.46 µM); in data set [17], more than 8 µg/mL; in data set [18], more than 8 µg/mL; in [19] it was 0.25 µg/mL (≈ 1.46 µM). Moreover, the MIC is 0.5 µg/mL (≈ 2.92 µM) in data set [20] and 1 µg/mL (≈ 5.84 µM) in [21].

Turning to `CN[C@H](CC(C)C)C(=O)N[C@H]1C(=O)N[C@@H](CC(N)=O)C(=O)N[C@H]2C(=O)N[C@H]3C(=O)N[C@H](C(=O)N[C@H](C(=O)O)c4cc(O)cc(O)c4-c4cc3ccc4O)[C@H](O)c3ccc(c(Cl)c3)Oc3cc2cc(c3O[C@@H]2O[C@H](CO)[C@@H](O)[C@H](O)[C@H]2O[C@H]2C[C@](C)(N)[C@H](O)[C@H](C)O2)Oc2ccc(cc2Cl)[C@H]1O` [VANCOMYCIN], the MIC was 0.5 µg/mL (≈ 0.345 µM) in data set [7]; 0.5 µg/mL (≈ 0.345 µM) in [8]; 0.25 µg/mL (≈ 0.173 µM) in [9]; more than 8 µg/mL in data set [10]; 0.5 µg/mL (≈ 0.345 µM) in data set [11]; 1 µg/mL (≈ 0.69 µM) in data set [3]. Also, the MIC in [12] is 0.5 µg/mL (≈ 0.345 µM); in data set [15], 8 µg/mL (≈ 5.52 µM); in [16], 8 µg/mL (≈ 5.52 µM); in [17], 0.25 µg/mL (≈ 0.173 µM); in [18], more than 8 µg/mL; in data set [19] it was 0.5 µg/mL (≈ 0.345 µM). For the same compound, the minimum inhibitory concentration (MIC) in data set [20] is 0.125 µg/mL (≈ 0.0863 µM); in [21], 8 µg/mL (≈ 5.52 µM).
